Structures can show the parent of a compound that is named as a salt.

The first assay has as its system T1, 1N4R p-tau.
T1 construct: made in house; host or cells: E. coli (PIMAX system)
Kind of assay: p-tau aggregation modulator screen of 1280-compound library (ThS fluorescence net change over 16 h).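 For ThS net change: 30 µM compound with 6 µM p-tau over 16 h.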 Also on record: key to PTAI>2SD: *: PTAI>2SD.
Details: not given
The assay is classed as biochemical.
In the case of `CCN(CC)C(=O)[C@]1(c2ccccc2)C[C@@H]1CN.Cl` [Milnacipran hydrochloride], the ThS net change stood at 415.
The same measure, in the same setting: the same measure for `O=C1c2c(O)ccc(O)c2C(=O)c2c(NCCNCCO)ccc(NCCNCCO)c21` [Mitoxantrone dihydrochloride]: 328; for `NC(=O)C[S+]([O-])C(c1ccccc1)c1ccccc1` (centres unmarked) [Modafinil]: 413.

Staying with this assay, now noted: 1280-compound library screen; ThS fluorescence net change over 16 h.
For the compound `C1N2CN3CN1CN(C2)C3` [Methenamine], the ThS net change worked out at 391.
The compound `Cn1cc[nH]c1=S` [Methimazole] showed a ThS net change of 393.
`CSc1ccc2c(c1)C(N1CCN(C)CC1)Cc1ccccc1S2.O=C(O)/C=C\C(=O)O` (centres unmarked) [Methiothepin maleate] had a ThS net change of 379.
With `COc1ccccc1OCC(O)COC(N)=O` (centres unmarked) [Methocarbamol], the ThS net change turned out to be 409.
With `COc1ccc(OC)c(C(O)C(C)N)c1` (centres unmarked) [Methoxamine hydrochloride], the ThS net change was 405.
The compound `CCOC(=O)[C@@](C)(N)Cc1ccc(O)c(O)c1` [Methyldopate hydrochloride] returned a ThS net change of 385.
The compound `C[C@H]1NC(=O)NC1=O` [Methylhydantoin-5-(D)] had a ThS net change of 384.
For the compound `CN1CCCC(CC2c3ccccc3Sc3ccccc32)C1` (centres unmarked) [Metixene hydrochloride], the ThS net change was found to be 386.
In turn, `CC(=O)Nc1c(I)c(C(=O)N[C@H]2C(O)O[C@H](CO)[C@@H](O)[C@@H]2O)c(I)c(N(C)C(C)=O)c1I` (some centres unmarked) [Metrizamide] yielded a ThS net change of 400.
As for `Cc1cccc(C)c1OCC(C)N` (centres unmarked) [Mexiletine hydrochloride], the ThS net change is given as 381.
For `CC#C[C@]1(O)CC[C@H]2[C@@H]3CCC4=CC(=O)CCC4=C3[C@@H](c3ccc(N(C)C)cc3)C[C@@]21C` [Mifepristone], the ThS net change was 382.
As to `CN(c1nccc(=O)[nH]1)C1CCN(c2nc3ccccc3n2Cc2ccc(F)cc2)CC1` [Mizolastine], the ThS net change amounted to 390.
As to `O=C(NCCN1CCOCC1)c1ccc(Cl)cc1` [Moclobemide], the ThS net change is on record as 393.
As to `Oc1ccc(OCc2ccccc2)cc1` [Monobenzone], the ThS net change worked out at 382.
`Cl.N=C(N)NC(=N)N1CCOCC1` [Moroxidine hydrochloride] yielded a ThS net change of 379.
`COc1c(N2C[C@@H]3CCCN[C@@H]3C2)c(F)cc2c(=O)c(C(=O)O)cn(C3CC3)c12` [Moxifloxacin] came in with a ThS net change of 413.
As to `CC1CCc2c(N3CCC(O)CC3)c(F)cc3c(=O)c(C(=O)O)cn1c23` (centres unmarked) [Nadifloxacin], the ThS net change turned out to be 399.
Still for that read-out and setting: to `CC(C)(C)NCC(O)COc1cccc2c1CC(O)C(O)C2` (centres unmarked) [Nadolol] belongs 411.

Still in this assay, the particulars now being: 1280-compound library screen; […].
Take `CC[C@@H](CO)NC(=O)[C@@H]1C=C2c3cccc4[nH]cc(c34)C[C@H]2N(C)C1` [Methylergometrine maleate]: the ThS net change was found to be 393.
For the compound `COc1ccc(OC)c(C(O)CNC(=O)CN)c1` (centres unmarked) [Midodrine hydrochloride], the ThS net change was 385.
Consider `Cc1ccsc1/C=C/C1=NCCCN1C` [Morantel tartrate], for which the ThS net change is on record as 398.

The same assay, now with this note: flag: p-tau aggregation inhibitor, ThS net change more than 2 SD from mean.
`CN(C)c1ccc(O)c2c1C[C@H]1C[C@H]3[C@H](N(C)C)C(O)=C(C(N)=O)C(=O)[C@@]3(O)C(O)=C1C2=O` [Minocycline hydrochloride]: the “PTAI>2SD” value was “*”.

The assay is the same for the next values; noted with them: library screen, ThS fluorescence net change over 16 h with p-tau.
As to `CN(Cc1cnc2nc(N)nc(N)c2n1)c1ccc(C(=O)N[C@@H](CCC(=O)O)C(=O)O)cc1` [Methotrexate], the ThS net change turned out to be 326.
On the same count and under the same terms, to `CCN(CC)CCNC(=O)c1cc(Cl)c(N)cc1OC.Cl` [Metoclopramide monohydrochloride] belongs 299.
Still for that read-out and setting: to `Clc1ccc(COC(Cn2ccnc2)c2ccc(Cl)cc2Cl)c(Cl)c1` (centres unmarked) [Miconazole] belongs 316; to `Cc1cc(-c2ccccc2)nnc1NCCN1CCOCC1` [Minaprine dihydrochloride], 294; to `CN(C)c1ccc(O)c2c1C[C@H]1C[C@H]3[C@H](N(C)C)C(O)=C(C(N)=O)C(=O)[C@@]3(O)C(O)=C1C2=O` [Minocycline hydrochloride], 121.
For the compound `CCOc1ccc2ccccc2c1C(=O)N[C@@H]1C(=O)N2[C@@H]1SC(C)(C)[C@@H]2C(=O)O` [Nafcillin sodium salt monohydrate], the ThS net change turned out to be 317.
`CCN(CC)CCOC(=O)C(Cc1cccc2ccccc12)CC1CCCO1` (centres unmarked) [Nafronyl oxalate] came in with a ThS net change of 324.

The assay is the same for the next values; noted with them: p-tau aggregation modulator screen of 1280-compound library; ThS fluorescence net change.
Take `COC(=O)Nc1nc2cc(SC(C)C)ccc2[nH]1` [Methiazole]: the ThS net change stood at 365.
On the same count and under the same terms, the same measure for `COc1ccc2c(c1)N(C[C@H](C)CN(C)C)c1ccccc1S2.O=C(O)/C=C\C(=O)O` [Methotrimeprazine maleat salt]: 355; for `Cc1cc(C(C)(C)CC(C)(C)C)ccc1OCCOCC[N+](C)(C)Cc1ccccc1.[Cl-]` [Methyl benzethonium chloride]: 348.
`C[C@H]1C[C@@H]2[C@H]([C@@H](O)C[C@@]3(C)[C@H]2CC[C@]3(O)C(=O)CO)[C@@]2(C)C=CC(=O)C=C12` [Methylprednisolone, 6-alpha] gave a ThS net change of 340.
Regarding `Cc1cc2c(cc1S(N)(=O)=O)S(=O)(=O)CCC2` [Meticrane], the ThS net change is 368.
`Cc1ccccc1N1C(=O)c2cc(S(N)(=O)=O)c(Cl)cc2NC1C` (centres unmarked) [Metolazone]: the ThS net change is reported as 364.
`Cc1ncc([N+](=O)[O-])n1CCO` [Metronidazole]: the ThS net change came out at 365.
`CC(C)(C(=O)c1cccnc1)c1cccnc1` [Metyrapone] registered a ThS net change of 353.
As to `CN1CCN2c3ccccc3Cc3ccccc3C2C1.Cl` (centres unmarked) [Mianserine hydrochloride], the ThS net change is listed as 366.
Consider `OCCN1C[C@H](O)[C@@H](O)[C@H](O)[C@H]1CO` [Miglitol], for which the ThS net change was determined as 372.
The compound `CC(=O)Oc1cc(C(C)C)c(OCCN(C)C)cc1C.Cl` [Moxisylyte hydrochoride] came in with a ThS net change of 358.
The compound `COc1ccc2cc(CCC(C)=O)ccc2c1` [Nabumetone] came in with a ThS net change of 357.
The same measure, in the same setting: to `NC(=O)c1ccc[n+]([C@@H]2O[C@H](COP(=O)([O-])OP(=O)(O)OC[C@H]3O[C@@H](n4cnc5c(N)ncnc54)[C@H](O)[C@@H]3O)[C@@H](O)[C@H]2O)c1` [Nadide] belongs 366; to `C=CCN1CC[C@]23c4c5ccc(O)c4O[C@H]2C(=O)CC[C@@]3(O)[C@H]1C5` [Naloxone hydrochloride], 349.

The same assay, now with this note: p-tau aggregation modulator screen of 1280-compound library; […].
The compound `CC[C@@]1([C@@H]2O[C@@H]([C@H]3O[C@@](O)(CO)[C@H](C)C[C@@H]3C)C[C@@H]2C)CC[C@H]([C@]2(C)CC[C@]3(C[C@H](O)[C@@H](C)[C@@H]([C@@H](C)[C@@H](OC)[C@H](C)C(=O)[O-])O3)O2)O1.[Na+]` [Monensin sodium salt] yielded a ThS net change of 342.
The compound `Oc1ccc2c3c1O[C@H]1[C@@H](O)CC[C@@]4(O)[C@@H](C2)N(CC2CCC2)CC[C@]314` [Nalbuphine hydrochloride] had a ThS net change of 371.
The same measure, in the same setting: to `CCn1cc(C(=O)[O-])c(=O)c2ccc(C)nc21.[Na+]` [Nalidixic acid sodium salt] belongs 339.

Staying with this assay, now noted: p-tau aggregation modulator screen of the compound library, ThS fluorescence net change.
Consider `C[N+]1(C)[C@@H]2CC[C@H]1C[C@@H](OC(=O)C(CO)c1ccccc1)C2` (some centres unmarked) [Methylatropine nitrate], for which the ThS net change turned out to be 413.
Compound `C[C@](N)(Cc1ccc(O)c(O)c1)C(=O)O` [Methyldopa (L,-)] returned a ThS net change of 447.
`CC1NC(=O)NC1=O` (centres unmarked) [Methylhydantoin-5-(L)] yielded a ThS net change of 449.
As to `CC1(O)CCOC(=O)C1` (centres unmarked) [Mevalonic-D, L acid lactone], the ThS net change is recorded as 438.
Compound `CC[C@H](C)C(=O)O[C@H]1CCC=C2C=C[C@H](C)[C@H](CC[C@@H]3C[C@@H](O)CC(=O)O3)[C@H]21` [Mevastatin] showed a ThS net change of 497.
The compound `Cc1[nH]c(=O)c(C#N)cc1-c1ccncc1` [Milrinone] had a ThS net change of 423.
Regarding `CN1CCN2c3ncccc3Cc3ccccc3C2C1` (centres unmarked) [Mirtazapine], the ThS net change is 534.
In the case of `Clc1ccc(C(c2ccccc2Cl)C(Cl)Cl)cc1` (centres unmarked) [Mitotane], the ThS net change is recorded as 449.
`CCc1c(C)[nH]c2c1C(=O)C(CN1CCOCC1)CC2` (centres unmarked) [Molindone hydrochloride] registered a ThS net change of 458.
As to `C[C@@H]1C[C@H]2[C@@H]3CCC4=CC(=O)C=C[C@]4(C)[C@@]3(Cl)[C@@H](O)C[C@]2(C)[C@@]1(OC(=O)c1ccco1)C(=O)CCl` [Mometasone furoate], the ThS net change worked out at 484.
Consider `CC(C)(O)c1ccccc1CC[C@@H](SCC1(CC(=O)O)CC1)c1cccc(/C=C/c2ccc3ccc(Cl)cc3n2)c1` [Montelukast], for which the ThS net change is 592.
`CCOC(=O)Nc1ccc2c(c1)N(C(=O)CCN1CCOCC1)c1ccccc1S2` [Moricizine hydrochloride]: the ThS net change came out at 473.
In turn, `CO[C@@]1(NC(=O)C(C(=O)O)c2ccc(O)cc2)C(=O)N2C(C(=O)O)=C(CSc3nnnn3C)CO[C@@H]21` (some centres unmarked) [Moxalactam disodium salt] gave a ThS net change of 419.
Turning to `COc1nc(C)nc(Cl)c1N=C1NCCN1` [Moxonidine], the ThS net change was determined as 433.
In turn, `CNc1ncnc2c1ncn2[C@@H]1O[C@H](CO)[C@@H](O)[C@H]1O` [N6-methyladenosine] came in with a ThS net change of 416.
Turning to `CC(=O)N[C@@H](CC(C)C)C(=O)O` [N-Acetyl-L-leucine], the ThS net change is 417.
In turn, `CN(C/C=C/c1ccccc1)Cc1cccc2ccccc12` [Naftifine hydrochloride] gave a ThS net change of 539.
In turn, `COc1ccccc1N1CCN(CC(O)COc2cccc3ccccc23)CC1.Cl.Cl` (centres unmarked) [Naftopidil dihydrochloride] had a ThS net change of 453.
`C=C1CC[C@@]2(O)[C@H]3Cc4ccc(O)c5c4[C@@]2(CCN3CC2CC2)[C@H]1O5` [Nalmefene hydrochloride] registered a ThS net change of 418.
